The target of this experiment is Protease (Human immunodeficiency virus 1, UniProt Q9YQ12). Nature of the experiment: Inhibition of HIV1 recombinant protease expressed in Escherichia coli.
Chain of Protease (Q9YQ12 whole entry): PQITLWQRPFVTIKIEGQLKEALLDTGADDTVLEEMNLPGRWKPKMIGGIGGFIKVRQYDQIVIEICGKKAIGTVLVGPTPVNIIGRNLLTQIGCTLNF
As to `O=[N+]([O-])c1ccc(S(=O)(=O)N(Cc2ccccc2)[C@H]2CNC[C@@H]2N(Cc2ccccc2)S(=O)(=O)c2ccc([N+](=O)[O-])cc2)cc1`, the Ki came to 1720 nM. Take `Cc1ccccc1S(=O)(=O)N(Cc1ccccc1)[C@H]1CNC[C@@H]1N(Cc1ccccc1)S(=O)(=O)c1ccccc1C`: the inhibition constant (Ki) was found to be 670 nM. Regarding `O=S(=O)(c1ccccc1)N(Cc1ccc(Br)cc1)[C@H]1CNC[C@@H]1N(Cc1ccc(Br)cc1)S(=O)(=O)c1ccccc1`, the Ki stood at 460 nM.

In the case of `C=CCN([C@H]1CNC[C@@H]1N(CC=C)S(=O)(=O)c1ccccc1)S(=O)(=O)c1ccccc1`, the Ki stood at 12300 nM. In the case of `C=C(C)CN([C@H]1CNC[C@@H]1N(CC(=C)C)S(=O)(=O)c1ccccc1)S(=O)(=O)c1ccccc1` it was 74700 nM; in that of `CC(C)=CCN([C@H]1CNC[C@@H]1N(CC=C(C)C)S(=O)(=O)c1ccccc1)S(=O)(=O)c1ccccc1`, 1570 nM; in that of `O=S(=O)(c1ccccc1)N(Cc1ccc(C(F)(F)F)cc1)[C@H]1CNC[C@@H]1N(Cc1ccc(C(F)(F)F)cc1)S(=O)(=O)c1ccccc1`, 800 nM.

As a reminder, the Ki is a dissociation constant, usually derived from enzyme kinetics or from competition with a known ligand.

Source of the values: ChEMBL document CHEMBL1144712, “Structure-guided design of C2-symmetric HIV-1 protease inhibitors based on a pyrrolidine scaffold” (J Med Chem, 2008).
